Measurements reported in patent US20180110978A1, “SYNERGISTIC REGULATED CELL DEATH INDUCTION WITH HSP90 INHIBITORS AND NANOSECOND PULSED ELECTRIC FIELDS” (Old Dominion University Research Foundation, priority 2015, published 2018).

Legend:
[1] = test system: N1-S1 rat HCC cells; experiment: Cell viability of N1-S1 rat HCC cells (CellTiter-Glo) after Hsp90 inhibitor and/or nsPEF; assay type: cell-based
Procedure: In some embodiments, N1-S1 rat HCC cells are exposed to an inhibitor of Hsp90 and then exposed to nsPEFs to cause cell death. In these embodiments, using the aforementioned methodology the cells mortality is greater than when either Hsp90 inhibitor or nsPEFs are employed alone. In an example, N1-S1 rat HCC cells are treated with 0.3 μM 17-AAG and incubated for 24 hours. In this example, after the 24 hours incubation period, the N1-S1 rat HCC cells are treated with a single 600 ns pulse with increasing electric field intensities (from about 10 kV/cm to about 60 kV/cm). Further to this example, cell viability is determined employing CellTiter-Glo (available from Promega, Madison, Wis.) 24 hours after pulsing.
In an example, mitochondria membrane potential (ΔΨm) and Ca^2+ influx are determined by employing Tetramethylrhodamine, ethyl ester (TMRE) Assay Kit and green-fluorescent calcium indicator, Fluo-4, respectively, 10 minutes after pulsing. In this example, cell viability is determined employing CellTiter-Glo (available from Promega, Madison, Wis.) 24 hours after pulsing.
In some embodiments, bar 502 illustrates the percentage of cell viability for a control sample where none of the treatments are employed. In these embodiments, bar 504 illustrates the percentage of cell viability when employing an Hsp90 inhibitor at a concentration of 0.3 μM (e.g., 17-AAG) without nsPEFs. Further to these embodiments, bar 506 illustrates the percentage of cell viability when employing only a single 600 nsPEF of 60 kV/cm. Still further to these embodiments, bar 508 illustrates the percentage of cell viability when employing both treatments (0.3 μM 17-AAG and single 600 ns pulse of 60 kV/cm). In an example, N1-S1 HCC cells are employed for the cell viability test.

[2] = test system: caspase 3/7 catalytic activity in N1-S1 cells; experiment: Caspase 3/7 catalytic activity in N1-S1 cells (Caspase-Glo); assay type: cell-based, rat
Procedure: In some embodiments, bar graph 402 represents the percentage change in caspase 3/7 catalytic activity after four (4) hours of incubation with 0.3 μM 17-AAG followed by the application of a single 600 ns pulse at different electric field intensities (from 0 to about 60 kV/cm). In these embodiments, bar graph 432 represents the percentage change in […] after 16 hours of incubation with 0.3 μM 17-AAG followed by the application of a single 600 ns pulse at different electric field intensities (from 0 to about 60 kV/cm).
In some embodiments, N1-S1 cells were incubated with or without 17-AAG for 4 hours or 16 hours to determine a synergistic activation of caspase 3/7 with 17-AAG and nsPEFs. In these embodiments, after the incubation period, N1-S1 cells were then treated with nsPEFs with increasing electric fields (one 600 ns pulse) and assayed for caspase 3/7 catalytic activity two (2) hours after pulsing. In an example, caspase 3/7 catalytic activity is measured employing Caspase-Glo (available from Promega, Madison, Wis.) 2 hours after pulsing.

[3] = test system: cleaved caspase 3; experiment: Western blot for cleaved caspase 3 relative to β-actin (LI-COR Odyssey CLx); assay type: cell-based
Source text: FIG. 7 is a graphical representation illustrating western blot test results for cleaved caspase 3 when employing an Hsp90 inhibitor at different concentrations, according to an embodiment. In FIG. 7, western blot test results 700 include stained bands 702 and cleaved caspase 3 fold change graph 708. In FIG. 7, stained bands 702 include cleaved caspase 3 bands 704 and β-actin bands 706. In FIG. 7, cleaved caspase 3 fold change graph 708 includes bars 710, 712, and 714. In an example, the western blot data is quantified using a LI-COR Odyssey CLx imaging system. In FIG. 7, stained bands 702 is a photographic representation depicting an expression of cleaved caspase 3 as a function of concentration of an Hsp90 inhibitor (e.g., AUY922). In FIG. 7, cleaved caspase 3 fold change graph 708 is a graphical representation illustrating fold changes of caspase 3 with respect to β-actin. FIG. 8 is a graphical representation illustrating western blot test results for cleaved caspase 3 when employing an Hsp90 inhibitor alone, nsPEF alone, or a combination of both treatments, according to an embodiment. In FIG. 8, western blot test results 800 include stained bands 802 and caspase 3 fold change graph 808. In FIG. 8, stained bands 802 include cleaved caspase 3 bands 804, β-actin bands 806, and caspase expression 807. In FIG. 8, caspase 3-fold change graph 808 includes bars 810, 812, and 814. In an example, the western blot data is quantified using LI-COR Odyssey CLx imaging system. In some embodiments, stained bands 802 is a photographic representation depicting an expression of cleaved caspase 3 as a function of the treatment employed. In these embodiments, caspase 3 fold change graph 808 is a graphical representation illustrating fold changes of caspase 3 with respect to β-actin.

Structure (SMILES)	cell viability reduction ([1]; 0.3 μM 17-AAG alone, 24 h incubation, no nsPEF (bar 116, FIG. 1), viability 24 h after pulsing time)	additional increase in the reduction of cell viability ([1]; 0.3 μM 17-AAG plus nsPEF at about 50 kV/cm (bar 610, FIG. 6))	percentage of cell viability ([1]; 0.3 μM 17-AAG plus single 600 ns pulse of 60 kV (bar 508, FIG. 5))	cells killed ([1]; cells pre-treated with 0.3 μM 17-AAG, then single 600 ns pulse of 50 kV/cm) [%]	effect of 17-AAG on the nsPEF-induced modest change in catalytic activity ([2]; 0.3 μM 17-AAG 4 h, then 600 ns pulse at higher electric fields 50-60 kV/cm (bars 428, 430))	effect of 17-AAG on the nsPEF-induced modest change in caspase activity ([2]; 0.3 μM 17-AAG 4 h, then 600 ns pulse at lower electric fields 10-40 kV/cm (bars 420-426))	change in caspase 3/7 activity ([2]; 0.3 μM 17-AAG alone, 4 hours of incubation (bar 418, FIG. 4))	change in caspase 3/7 activity ([2]; 0.3 μM 17-AAG, 16 h of incubation, unaffected by nsPEFs (FIG. 4))	synergistic effects on caspase 3/7 activity of 17-AAG together with nsPEFs ([2]; the two treatments included together)	ratio of caspase 3 to β-actin (fold change) ([3]; 1 μM AUY922, no nsPEF (bar 712, FIG. 7), no AUY922 about 1)	ratio of caspase 3 to β-actin (fold change) ([3]; 1 μM AUY922 alone (bar 814, FIG. 8))	ratio of caspase 3 to β-actin (fold change) ([3]; 1 μM AUY922 plus nsPEF of 600 ns at 20 kV/cm (bar 812, FIG. 8))	ratio of caspase 3 to β-actin (fold change) ([3]; 10 μM AUY922, no nsPEF (bar 714, FIG. 7), no AUY922 about 1)
C=CCNC1=C2C[C@@H](C)C[C@H](OC)[C@H](O)[C@@H](C)/C=C(\C)[C@H](OC(N)=O)[C@@H](OC)/C=C\C=C(/C)C(=O)NC(=CC1=O)C2=O [17-AAG]	about 25%	about 45%	about 17%	80	no effect	no effect	no significant change	significant increases	no synergistic effects				
CCNC(=O)c1noc(-c2cc(C(C)C)c(O)cc2O)c1-c1ccc(CN2CCOCC2)cc1 [AUY922]										about 2	~3	about 7	about 7
